Key:
neutral sphingomyelinase = experiment: Ceramide formation from sphingomyelin; type: cell-based
IL-1β = experiment: Inhibition of pro-IL-1β processing and IL-1β release; type: cell-based
human fibroblasts = experiment: G2-phase cell cycle arrest in fibroblasts; type: cell-based
mononuclear phagocytes [1] = experiment: ApoA-I mediated cholesterol efflux from cholesterol-loaded monocytes (14C-cholesterol); type: cell-based, Human; conditions: ApoA-I 10 µg/ml + 24 h pretreatment with forskolin 10 µM, percent of basal efflux, men and women
Procedure: Cellular Lipid Efflux. Human peripheral blood cells were isolated from lithium-heparin treated blood samples of adult, healthy volunteers. The peripheral blood mononuclear cell fraction was separated by density gradient centrifugation over Ficoll-Histopaque […] (Sigma). Cells positive for CD2, CD7, CD16, CD19 and CD56 were removed by appropriate magnetic beads (Dynal) leaving > 80% pure monocytes. Isolated monocytes were then cultured at a density of 1.5x10^5 cells/mL in polystyrene culture dishes (100x15mm Petri dish, Falcon) in a serum-free macrophage medium (Macrophage-SFM, Gibco Life Technologies) supplemented with 50ng/mL human recombinant M-CSF (R&D Systems). After an overnight incubation cells were cholesterol loaded for 24 hrs by addition of enzymatically modified LDL (E-LDL; 40 µg/ml), which was prepared as previously described (31). […] Lipids were extracted by liquid extraction according to the method of Bligh and Dyer (13). ^3H and ^14C radioactivities of the total lipid extracts were measured by liquid scintillation counting in order to distinguish between ^3H labeled phospholipids and ^14C-cholesterol. Lipid efflux was calculated as percentage of disintegrations per minute (dpm) in medium divided by the sum of dpm recovered from medium and cells. […]

mononuclear phagocytes [2] = experiment: ApoA-I mediated efflux of choline containing phospholipids from monocytes (3H-choline); type: cell-based, Human; conditions: ApoA-I 10 µg/ml + 24 h pretreatment with forskolin 10 µM, percent of basal efflux, men and women
Procedure: Cellular Lipid Efflux. Human peripheral blood cells were isolated from lithium-heparin treated blood samples of adult, healthy volunteers. The peripheral blood mononuclear cell fraction was separated by density gradient centrifugation over Ficoll-Histopaque […] (Sigma). Cells positive for CD2, CD7, CD16, CD19 and CD56 were removed by appropriate magnetic beads (Dynal) leaving > 80% pure monocytes. Isolated monocytes were then cultured at a density of 1.5x10^5 cells/mL in polystyrene culture dishes (100x15mm Petri dish, Falcon) in a serum-free macrophage medium (Macrophage-SFM, Gibco Life Technologies) supplemented with 50ng/mL human recombinant M-CSF (R&D Systems). After an overnight incubation cells were cholesterol loaded for 24 hrs by addition of enzymatically modified LDL (E-LDL; 40 µg/ml), which was prepared as previously described (31). The incubation medium was further supplemented with ^14C-cholesterol (1.5 µCi/ml) and ^3H-choline (10µCi/ml) in order to label cellular cholesterol and choline containing phospholipids. In a subset of experiments cells were stimulated with 10 µM forskolin during the labeling period. After 24 hrs monocytes were washed and incubated for 17 hrs with or without 10 µg/ml ApoA-I (Sigma) in macrophage medium containing 0.1 % bovine serum albumin and 50ng/mL M-CSF. After incubation the media were removed and centrifuged at 800 x g to precipitate any detached cells. Cells were lysed in 0.2% SDS. Lipids were extracted by liquid extraction according to the method of Bligh and Dyer (13). ^3H and ^14C radioactivities of the total lipid extracts were measured by liquid scintillation counting in order to distinguish between ^3H labeled phospholipids and ^14C-cholesterol. Lipid efflux was calculated as percentage of disintegrations per minute (dpm) in medium divided by the sum of dpm recovered from medium and cells. The ApoA-I specific efflux is expressed a percent of basal unstimulated efflux observed in serum-free macrophage medium without ApoA-I. Statistical Analysis. […]

SMILES	ceramide formation from sphingomyelin mediated by neutral sphingomyelinase (neutral sphingomyelinase)	Caspase I mediated processing of pro-IL-1β and release of mature IL-1β (IL-1β)	G2-phase cell cycle arrest (human fibroblasts)	Cholesterol efflux (mononuclear phagocytes [1]; 596A/A) [%]	Cholesterol efflux (mononuclear phagocytes [1]; wt/wt 596G/G, 2589A/A) [%]	Phospholipid efflux (mononuclear phagocytes [2]; 596A/A) [%]	Phospholipid efflux (mononuclear phagocytes [2]; 2589G/G) [%]	Phospholipid efflux (mononuclear phagocytes [2]; wt/wt 596G/G, 2589A/A) [%]
COc1ccc(Cl)cc1C(=O)NCCc1ccc(S(=O)(=O)NC(=O)NC2CCCCC2)cc1 [glyburide]	inhibits	inhibits	releases human fibroblasts from G2-phase cell cycle arrest	–	–	–	–	–
C=C[C@@]1(C)CC(=O)[C@]2(O)[C@@]3(C)[C@@H](O)CCC(C)(C)[C@@H]3[C@H](O)[C@H](OC(C)=O)[C@@]2(C)O1 [forskolin]	–	–	–	126.7 ± 37.4	121.8 ± 16.4	136.7 ± 12.8	124.5 ± 25.8	135.4 ± 20.2

From patent EP1136552A1, “ATP binding cassette transporter 1 (ABC1) gene polymorphisms and uses thereof for the diagnosis and treatment of lipid disorders, cardiovascular diseases and inflammatory diseases” (Bayer Aktiengesellschaft, priority 2000, dated 2001)
